Measured values as given in publication PMC4802219, “Improved dialytic removal of protein-bound uraemic toxins with use of albumin binding competitors: an in vitro human whole blood study” (Scientific Reports, 2016).

Legend:
albumin [1] = molecular target: T1, albumin (Homo sapiens, UniProt P02768); assay: Single-pass haemodialysis model with uraemic human whole blood and pre-dialyzer displacer infusion
T1 construct: from tissue; host or cells: human uraemic plasma
Method: All experiments were carried out in triplicate.
(§1) Blood samples were centrifuged at 13200 rpm for 3 mins. The plasma layer was collected and stored at −80 °C. Plasma samples (50 μl) were precipitated with 100 μl of ice-cold acetonitrile to precipitate the proteins. The samples were then vortexed thoroughly and centrifuged at 3000 rpm for 10 minutes. The supernatant, containing the uraemic toxins and displacers, was collected and further diluted 1:1 with deionized water before HPLC injection. The dialysate samples (100 μl) were diluted with 100 μl water before HPLC injection.
(§2) Measurements were calibrated with standard curves for all analytes, and were linear over the concentration range of the experiments. Measurements were performed on an Agilent 1100 system (Agilent Technologies, Dover, DE, USA) equipped with a C18 column (Kinetex 5 μm C18 100 Å, LC Column 150 × 4.6 mm, Phenomenex, Torrance, CA, USA). Mobile phase A: ammonium formate, 20 mmol/l, pH 4. Mobile phase B: acetonitrile. […] HIPA and furosemide were detected at 230 nm with the UV-Vis detector. The injection volume was 5 μl.

albumin [2] = molecular target: T1, albumin; assay: Static RED assay of PBUT displacement by binding competitors in uraemic plasma; conditions: for displacement of IS and PCS: RED assay (Fig. 1); for increase of free fraction of IS / increase of free fraction of PCS: displacer 1 mmol/l, RED 4 h 37 °C, compared to PBS
Method: We evaluated the albumin binding of uraemic toxins and their interaction with displacers in human uraemic plasma utilizing the RED device. Candidate displacers were mixed with uraemic plasma before incubation. The test mixture (300 μl) was added into the sample chamber, while the buffer chamber was filled with 500 μl PBS. After 4 hours of incubation (37 °C, 250 rpm), samples were collected from both chambers for HPLC analysis. The concentration of all displacers and negative control (antipyrine) in the incubations was 1 mmol/l. For furosemide, incubations at final concentration of 0.18 mmol/l were also included since this is the clinically relevant concentration for intravenous administration.
as §1
as §2, with “acetonitrile. The gradient profile for mobile phase B was: 0–2 min, 15%; 11–14 min, 100%; 14.2–16 min, 15%; and the flow rate gradient was 0–11.2 min, 0.4 ml/min; 11.2–16 min 0.5 ml/min.” for “acetonitrile.”
For PBUT displacement in RED assays, Dunnett’s post-analysis comparisons to PBS were performed by one way ANOVA using GraphPad Prism (GraphPad Software, La Jolla, CA).

[3] = parameters: method as in PMID 973966, PMID 3514052; conditions: cited from earlier work
albumin [4] = molecular target: T1, albumin; assay: Static RED assay of IS displacement by ibuprofen with or without furosemide in normal human plasma; assay type: binding; conditions: normal human plasma spiked with IS 150 μmol/l, ibuprofen 0 to 931 μmol/l, furosemide 0.18 mmol/l (Fig. 3)
[5] = intervention phase vs baseline phase, P < 0.0001

T1 sequence (P02768 25-609): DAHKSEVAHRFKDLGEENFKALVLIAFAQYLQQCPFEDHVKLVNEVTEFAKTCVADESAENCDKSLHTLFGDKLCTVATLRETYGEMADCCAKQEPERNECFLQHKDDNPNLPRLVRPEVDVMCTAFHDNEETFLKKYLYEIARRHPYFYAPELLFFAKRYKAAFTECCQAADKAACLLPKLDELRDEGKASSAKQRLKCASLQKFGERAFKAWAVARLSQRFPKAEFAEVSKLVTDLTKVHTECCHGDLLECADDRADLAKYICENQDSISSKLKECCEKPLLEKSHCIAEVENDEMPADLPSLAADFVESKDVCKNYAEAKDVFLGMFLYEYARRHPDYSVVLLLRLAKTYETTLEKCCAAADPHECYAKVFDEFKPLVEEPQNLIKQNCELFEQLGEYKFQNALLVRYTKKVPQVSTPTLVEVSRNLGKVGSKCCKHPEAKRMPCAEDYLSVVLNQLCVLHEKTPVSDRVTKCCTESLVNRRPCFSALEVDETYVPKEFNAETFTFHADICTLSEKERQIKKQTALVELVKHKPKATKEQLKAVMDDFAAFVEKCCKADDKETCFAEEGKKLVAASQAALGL

SMILES | HIPA removal (albumin [1]; human whole blood, HIPA 400 μmol/l (1 mmol/l with tryptophan) (Fig. 6)) | fractional removal of IAA during displacer infusion (albumin [1]; human whole blood, IAA 15 μmol/l, Qb 12.5 ml/min, Qd 25 ml/min, mean ± SEM, N = 3) [%] | fractional removal of IS during displacer infusion (albumin [1]; human whole blood, IS 150 μmol/l, Qb 12.5 ml/min, Qd 25 ml/min, mean ± SEM, N = 3) [%] | increase of IAA removal (albumin [1]; [5]) [fold] | increase of IS removal (albumin [1]; [5]) [fold] | displacement of IS and PCS (albumin [2]; uraemic plasma) | increase of free fraction of IS (albumin [2]; uraemic plasma) [fold] | increase of free fraction of PCS (albumin [2]; uraemic plasma) [fold] | change in uraemic toxin protein binding (albumin [2]; uraemic plasma, negative control 1 mmol/l (Figs 1 and 2)) | protein binding capability [3] | increase in the free fraction of IS (albumin [2]; furosemide alone at 0.18 mmol/l (Fig. 1)) | displacement of HIPA (albumin [2]; uraemic plasma, RED assay (Fig. 2)) | effect on IS displacement by ibuprofen when given simultaneously (albumin [4])
N[C@@H](Cc1c[nH]c2ccccc12)C(=O)O [tryptophan, L-Tryptophan] | virtually unaffected | 27.1 ± 0.3 | 10.5 ± 0.1 | 1.3 | 1.4 | more efficiently than HIPA | ~2 | ~2 | – | – | – | – | –
Cc1cc(=O)n(-c2ccccc2)n1C [antipyrine] | – | – | – | – | – | – | – | – | did not lead to a significant change | lacks protein binding capability | – | – | –
NS(=O)(=O)c1cc(C(=O)O)c(NCc2ccco2)cc1Cl [furosemide] | – | – | – | – | – | limited displacement effect | ~1.3 | ~1.3 | – | – | did not induce a significant increase | significant displacement | boost the IS displacement effect of ibuprofen
